In PMC3755010 (Bioorganic & medicinal chemistry letters, 2012):

Columns and labels:
[1] = biological target: T1, mGlu5 MPEP allosteric binding site (Rattus norvegicus, UniProt P31424); settings: cited from earlier work
rat mGlu5 receptor = rat mGlu5 receptor (Rattus norvegicus, UniProt P31424); assay: Calcium mobilization assay in HEK293 cells expressing the rat mGlu5 receptor; assay type: cell-based; settings: for loss in functional activity versus 6: relative to 6 (VU0357121); for EC50 (nM): calcium mobilization, HEK293 cells expressing rat mGlu5; for improvement in potency versus 8b: relative to 8b
rat mGlu5 receptor, sequence (P31424 21-1203): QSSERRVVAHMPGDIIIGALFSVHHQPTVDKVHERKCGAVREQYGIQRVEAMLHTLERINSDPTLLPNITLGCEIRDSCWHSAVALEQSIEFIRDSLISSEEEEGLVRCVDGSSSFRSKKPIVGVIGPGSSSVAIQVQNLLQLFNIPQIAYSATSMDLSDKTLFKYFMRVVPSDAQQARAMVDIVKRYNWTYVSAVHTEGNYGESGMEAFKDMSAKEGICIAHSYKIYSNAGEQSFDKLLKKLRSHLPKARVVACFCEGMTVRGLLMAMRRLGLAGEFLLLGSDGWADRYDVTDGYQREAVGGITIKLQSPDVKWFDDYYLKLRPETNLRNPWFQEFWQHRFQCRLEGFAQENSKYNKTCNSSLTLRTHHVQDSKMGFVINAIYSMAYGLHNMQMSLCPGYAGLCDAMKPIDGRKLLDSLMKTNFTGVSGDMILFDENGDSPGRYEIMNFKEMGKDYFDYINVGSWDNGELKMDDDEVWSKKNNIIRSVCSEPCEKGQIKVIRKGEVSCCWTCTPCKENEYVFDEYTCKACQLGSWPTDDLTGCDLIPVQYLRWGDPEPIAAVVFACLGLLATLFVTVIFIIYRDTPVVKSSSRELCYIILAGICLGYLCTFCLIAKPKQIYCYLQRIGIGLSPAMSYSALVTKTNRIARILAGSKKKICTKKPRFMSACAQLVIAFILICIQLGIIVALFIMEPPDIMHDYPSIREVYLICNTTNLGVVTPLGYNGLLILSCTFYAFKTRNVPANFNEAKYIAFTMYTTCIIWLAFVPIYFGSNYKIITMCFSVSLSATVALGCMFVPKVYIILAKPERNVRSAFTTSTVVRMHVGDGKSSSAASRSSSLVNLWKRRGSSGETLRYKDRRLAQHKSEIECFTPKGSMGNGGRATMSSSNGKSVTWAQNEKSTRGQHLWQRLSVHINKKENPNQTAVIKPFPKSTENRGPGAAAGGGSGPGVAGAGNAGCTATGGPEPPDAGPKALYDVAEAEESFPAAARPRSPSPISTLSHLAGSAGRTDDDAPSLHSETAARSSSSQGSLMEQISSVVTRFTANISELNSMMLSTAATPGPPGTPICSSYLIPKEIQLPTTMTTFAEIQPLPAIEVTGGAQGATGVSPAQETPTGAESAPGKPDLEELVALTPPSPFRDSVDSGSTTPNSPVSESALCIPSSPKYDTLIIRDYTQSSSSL

[2] = biological target: T1, mGlu5 MPEP allosteric binding site; assay: [3H]methoxyPEPy binding
human mGlu5 receptor = human mGlu5 receptor (Homo sapiens, UniProt P41594); assay: Functional assay in lower expressing human mGlu5 receptor cell line; assay type: cell-based
human mGlu5 receptor, sequence (P41594 21-1212): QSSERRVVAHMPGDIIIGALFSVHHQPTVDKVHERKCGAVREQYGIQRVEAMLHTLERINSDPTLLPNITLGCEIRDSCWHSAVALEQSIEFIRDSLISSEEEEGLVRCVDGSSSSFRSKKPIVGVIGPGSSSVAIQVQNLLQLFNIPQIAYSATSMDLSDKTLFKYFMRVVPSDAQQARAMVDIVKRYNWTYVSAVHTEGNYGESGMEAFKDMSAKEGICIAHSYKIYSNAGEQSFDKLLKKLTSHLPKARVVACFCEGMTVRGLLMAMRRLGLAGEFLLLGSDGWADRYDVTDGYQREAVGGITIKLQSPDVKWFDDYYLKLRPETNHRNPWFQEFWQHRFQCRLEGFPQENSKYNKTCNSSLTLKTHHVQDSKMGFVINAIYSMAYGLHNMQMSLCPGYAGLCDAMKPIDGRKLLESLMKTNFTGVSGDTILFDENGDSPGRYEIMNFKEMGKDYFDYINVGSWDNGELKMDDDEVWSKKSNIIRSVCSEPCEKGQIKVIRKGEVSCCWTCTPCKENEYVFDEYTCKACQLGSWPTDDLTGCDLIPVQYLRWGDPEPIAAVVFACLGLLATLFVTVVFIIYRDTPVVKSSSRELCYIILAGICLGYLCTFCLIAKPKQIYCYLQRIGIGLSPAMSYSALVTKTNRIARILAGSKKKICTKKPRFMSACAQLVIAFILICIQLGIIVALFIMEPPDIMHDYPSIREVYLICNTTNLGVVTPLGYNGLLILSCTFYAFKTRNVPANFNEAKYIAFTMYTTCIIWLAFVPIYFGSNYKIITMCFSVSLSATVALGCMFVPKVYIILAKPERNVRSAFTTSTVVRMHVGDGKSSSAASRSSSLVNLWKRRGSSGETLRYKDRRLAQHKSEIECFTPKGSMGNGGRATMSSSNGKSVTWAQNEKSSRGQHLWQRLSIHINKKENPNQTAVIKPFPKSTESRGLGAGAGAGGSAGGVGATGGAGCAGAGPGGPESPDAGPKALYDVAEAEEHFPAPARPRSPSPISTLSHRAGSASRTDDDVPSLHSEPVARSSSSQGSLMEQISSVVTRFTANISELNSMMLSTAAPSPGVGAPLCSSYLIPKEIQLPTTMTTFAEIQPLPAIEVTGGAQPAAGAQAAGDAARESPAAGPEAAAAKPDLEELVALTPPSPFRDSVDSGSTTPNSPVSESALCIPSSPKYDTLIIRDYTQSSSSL

[3] = biological target: wild-type rat mGlu5 receptor (Rattus norvegicus, UniProt P31424); assay: Fold-shift of glutamate concentration-response curve at wild-type receptor; assay type: cell-based; settings: 1 μM compound
wild-type rat mGlu5 receptor, sequence (P31424 21-1203): as the sequence (P31424 21-1203) above

[4] = test system: mGlu5 MPEP site sensitive mutants (P654F, T780A, A809V); assay: Fold-shift of glutamate CRC at MPEP site sensitive point mutants; assay type: cell-based; settings: 1 μM compound, compared to wild-type rat mGlu5
[5] = Non-crossover in vivo pharmacokinetic studies in rats; design: species or system rat
[6] = Reversal of amphetamine-induced hyperlocomotion in rats; assay type: in vivo, rat; settings: rat, brain (unbound), po, 100 mg/kg
[7] = test system: amphetamine-induced hyperlocomotion; assay: as above; assay type: in vivo, rat; settings: rats, 100 mg/kg p.o., vehicle 20% β-CD
[8] = In vitro oxidative metabolism; assay type: in vitro ADME, rat

T1 sequence (P31424 21-1203): as above

Q: For CCCCOc1ccc(C(=O)Nc2ccc(F)cc2F)cc1 [compound 6], which “displacement of the MPEP-site ligand [3H]methoxyPEPy” value [1] is on record?
A: not observed to displace

Q: Which results are given for C[C@@H](NC(=O)c1ccc(OCc2cccc(F)c2)nc1)C(C)(C)C [8v]?
A: increase in activity over cyclohexyl analog R-8t (rat mGlu5 receptor; high expressing rat receptor HEK cell line): twofold; displacement of the MPEP-site radioligand [3H]-methoxyPEPy (extent) [2]: full displacement; agonism activity for compound alone (human mGlu5 receptor): no detected agonism activity; shift of the glutamate CRC [3]: fivefold; effect of MPEP-site point mutations on shift of the glutamate CRC [4]: reduced the ability; clearance ([5]; rat, plasma, iv, 1 mg/kg): 13.7 mL/min/kg; first-pass effect (Ehep) ([5]; rats, snapshot oral PK, portal vein vs plasma): 0.41; concentration at 90 min [6]: ~74 nM; reversal of amphetamine-induced hyperlocomotion [7]: robust effects in reversal of hyperlocomotion

Q: Which “loss in functional activity versus 6” value (rat mGlu5 receptor) does the source give for CCCCOc1ccc(C(=O)NC2CCC2)cc1 [7c] here?
A: > 15 fold

Q: With O=C(NC1CCCCC1)c1ccc(OCc2ccccc2)nc1 [8k] as the molecule, how does the “estimated divergence of MPEP site interaction from functional activity” value ([2]; 21% displacement at 10 μM versus functional EC50) read?
A: > 100 fold

Q: What about the “oxidative metabolism in rat microsomal incubations” value ([8]; soft-spot analysis, rat microsomes) of the same molecule?
A: extensive oxidative metabolism

Q: With O=C(N[C@@H](C1CC1)C(F)(F)F)c1ccc(OCc2cccc(F)c2)nc1 [8u] as the molecule, how does the “metabolic stability in vitro” value ([8]; data not shown) read?
A: relatively stable metabolically in vitro

Q: For CCCOc1ccc(C(=O)NC2CCCCC2)cn1 [8e], which “EC50 (nM)” value (rat mGlu5 receptor) is on record?
A: complete loss of potentiation

Q: Which “EC50 relative to 8v” value (rat mGlu5 receptor; direct comparator to 8v) does the source give for C[C@@H](NC(=O)c1ccc(OCc2cccc(F)c2)cc1)C(C)(C)C [8w] here?
A: ~ 2.5 fold

Q: With CCCC(C)Oc1ccc(C(=O)NC2CCCCC2)cn1 (stereo not shown) [8f] as the molecule, how does the “EC50 (nM)” value (rat mGlu5 receptor) read?
A: unproductive

Q: Which “loss in functional activity versus 6” value (rat mGlu5 receptor) does the source give for CCCCOc1ccc(C(=O)NC2CCCCC2)cc1 [7a] here?
A: > 15 fold

Q: Which “improvement in potency versus 8b” value (rat mGlu5 receptor) does the source give for CCCCCOc1ccc(C(=O)NC2CCCCC2)cn1 [8d] here?
A: fivefold

Q: With CCCCOc1ccc(C(=O)Nc2ccc(F)cc2F)cn1 [8a] as the molecule, how does the “loss in functional activity versus 6” value (rat mGlu5 receptor) read?
A: 22 fold

Q: Which “improvement in potency versus 8b” value (rat mGlu5 receptor) does the source give for CCC(C)COc1ccc(C(=O)NC2CCCCC2)cn1 (stereo not shown) [8g] here?
A: twofold

Q: For O=C(NC1CCCCC1)c1ccc(OCc2ccc(F)cc2)nc1 [8m], which “loss in activity relative to 8k” value (rat mGlu5 receptor; relative to 8k) is on record?
A: sevenfold
